Results: PubChem BioAssay (NCI)
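48-hour exposure; five concentrations; linearly interpolated endpoints. Definition used: TGI = concentration required for complete inhibition of growth.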

Assays:
Experiment in all cases: NCI-60 cell line screen, 48 h
[1] = tested on: ACHN renal
[2] = tested on: HL-60(TB) leukemia
[3] = tested on: HOP-92 NSCLC
[4] = tested on: K-562 leukemia
[5] = tested on: LOX IMVI melanoma
[6] = tested on: MCF7 breast
[7] = tested on: MDA-MB-231 breast
[8] = tested on: MDA-MB-435
[9] = tested on: OVCAR-4 ovarian
[10] = tested on: PC-3 prostate
[11] = tested on: RPMI-8226 leukemia
[12] = tested on: SK-MEL-2 melanoma
[13] = tested on: SK-OV-3 ovarian

Row | Structure (SMILES) | TGI [1] [µM] | TGI [2] [µM] | TGI [3] [µM] | TGI [4] [µM] | TGI [5] [µM] | TGI [6] [µM] | TGI [7] [µM] | TGI [8] [µM] | TGI [9] [µM] | TGI [10] [µM] | TGI [11] [µM] | TGI [12] [µM] | TGI [13] [µM]
1 | c1cc2nnc1SCCCSc1ccc(nn1)SCCCS2 | > 100 | > 92.4 | > 100 | > 100 | > 48.4 | > 100 | > 100 | > 100 | > 100 | > 100 | > 100 | > 86.8 | 92.3
2 | C=C1CC(c2ccc(OCCCN3C(=O)c4ccccc4C3=O)cc2)OC1=O (stereo unspecified) | 10.4 | 5.22 | 2.99 | 3.16 | 3.77 | 6.46 | 13 | 9.2 | – | 10.9 | 3.68 | 4.98 | 27.5
3 | Fc1ccc(N2C(=S)SC(=Nc3ccccc3)C2=Nc2ccccc2)cc1 | > 100 | > 100 | > 100 | > 100 | > 100 | > 100 | > 100 | > 100 | > 100 | > 100 | > 100 | > 100 | > 100
4 | COc1ccc(OC)c(N(CN2C(=O)CCC2C(=O)O)C(C)=O)c1 (stereo unspecified) | > 100 | > 100 | > 100 | > 100 | > 100 | > 100 | > 100 | > 100 | > 100 | > 100 | > 100 | > 100 | > 100
5 | COC(=O)c1cc2c(c3c1CC(Cc1ccccc1)C3=O)CCC2 (stereo unspecified) | > 100 | > 100 | 78 | > 100 | > 100 | > 100 | > 100 | > 100 | > 100 | > 100 | > 100 | – | > 100
6 | Cc1cc(N(CCC#N)CCC#N)ccc1/C(N=Nc1cccc(Cl)c1)=N/NC(=O)c1cc(Cl)ccc1O | 42 | 9.06 | 43.1 | > 100 | 42.2 | > 100 | 49 | > 100 | 55.8 | 46.2 | 63.5 | 36.1 | 90.6
7 | [N-]=[N+]=NI1OC(=O)c2ccccc21 | > 100 | 84 | > 100 | > 100 | > 100 | > 100 | > 100 | > 100 | > 100 | > 100 | 65.7 | > 100 | > 100
8 | COc1ccc(OC)c(CNc2ccc(C(=O)O)cc2)c1 | > 100 | > 100 | > 100 | > 100 | > 100 | > 100 | > 100 | > 100 | > 100 | > 100 | > 100 | > 100 | > 100
9 | Clc1cc(Cl)cc(N=C/C=C/Nc2cc(Cl)cc(Cl)c2)c1 | 44.7 | 49.7 | > 100 | 66.2 | – | 27.2 | 30.2 | 35.9 | 32.7 | 36.6 | 76.9 | 40.7 | 89
10 | CCOP1(=O)CC(C)=C(Cl)C(O)C1 (stereo unspecified) | > 100 | > 100 | > 100 | > 100 | > 100 | > 100 | > 100 | > 100 | > 100 | > 100 | > 100 | > 100 | > 100
11 | O=C1C(Cl)C2(CC(/C=C/c3ccccc3)=NN2c2cccc(S(=O)(=O)O)c2)N1c1nc2ccccc2s1 (stereo unspecified) | 30.9 | 33.8 | 25.4 | 54.3 | 13 | 36.6 | 29.4 | 36.1 | 31.9 | 34.4 | 33.8 | 40.9 | –
12 | CC(=O)NC1C(OCc2ccccc2)OC(CO)C(O)C1OC(C)C(=O)NC(C)C(=O)NC(CCC(=O)NCCCCNc1c2ccccc2nc2cccc([N+](=O)[O-])c12)C(N)=O (stereo unspecified) | 0.0664 | 0.207 | 0.101 | 12.5 | 0.548 | 0.652 | 0.118 | 0.105 | 0.645 | 0.663 | 0.0629 | 0.393 | 3.55
13 | COc1ccc(/C(Br)=C2\OC(=O)c3ccccc32)cc1 | > 10 | > 10 | > 10 | > 10 | > 10 | > 10 | > 10 | > 10 | > 10 | > 10 | > 10 | > 10 | > 10
14 | CCCC1CCC(=C2C(=O)CCC2=O)O1 (stereo unspecified) | > 100 | > 100 | > 100 | > 100 | > 100 | > 100 | > 100 | > 100 | > 100 | > 100 | > 100 | > 100 | > 100
15 | CCOC(=O)C1(C(=O)OCC)[C@@H](c2ccccc2)C2=NO[C@@H]3CCC[C@H]1[C@H]23 | > 100 | > 100 | > 100 | > 100 | > 100 | > 100 | > 100 | 53.6 | > 100 | > 100 | > 100 | > 100 | > 100
16 | O=C1CSC2(CC(/C=C/c3cccc([N+](=O)[O-])c3)=NN2c2cccc(S(=O)(=O)O)c2)N1c1nc2ccccc2s1 (stereo unspecified) | 94.6 | 92.5 | 40.3 | > 100 | 29.1 | 37.2 | 43.5 | 34.9 | 72.1 | 51 | 39.2 | 47.9 | –
17 | O=[N+]([O-])c1ccc(C(=S)Nc2ccccc2)o1 | 6.66 | 6.35 | 31.8 | 6.28 | 8.6 | 5.57 | 8.06 | 7.63 | 6.47 | 4.63 | 4.9 | 7.95 | 24
18 | CCOC(=O)c1nc2cc(C(F)(F)F)ccc2nc1Nc1ccc(OC)cc1 | > 100 | > 100 | > 100 | – | > 100 | > 100 | > 100 | > 100 | – | > 100 | > 100 | > 100 | –
